In paper PMC12191924, “A new naphthalene-based fluorogenic substrate for cytochrome P450 4A11” (Biochemical Journal, 2025):
Where two headings read alike, the source gives them in different places.

Tests used:
[1] = target: T1, pooled human liver microsome (HLM) preparations (Homo sapiens, UniProt Q02928); experiment: Inhibition of MONACRA demethylation in pooled HLM preparations; format: biochemical; settings: 150 µM MONACRA
T1 sequence (Q02928 5-519): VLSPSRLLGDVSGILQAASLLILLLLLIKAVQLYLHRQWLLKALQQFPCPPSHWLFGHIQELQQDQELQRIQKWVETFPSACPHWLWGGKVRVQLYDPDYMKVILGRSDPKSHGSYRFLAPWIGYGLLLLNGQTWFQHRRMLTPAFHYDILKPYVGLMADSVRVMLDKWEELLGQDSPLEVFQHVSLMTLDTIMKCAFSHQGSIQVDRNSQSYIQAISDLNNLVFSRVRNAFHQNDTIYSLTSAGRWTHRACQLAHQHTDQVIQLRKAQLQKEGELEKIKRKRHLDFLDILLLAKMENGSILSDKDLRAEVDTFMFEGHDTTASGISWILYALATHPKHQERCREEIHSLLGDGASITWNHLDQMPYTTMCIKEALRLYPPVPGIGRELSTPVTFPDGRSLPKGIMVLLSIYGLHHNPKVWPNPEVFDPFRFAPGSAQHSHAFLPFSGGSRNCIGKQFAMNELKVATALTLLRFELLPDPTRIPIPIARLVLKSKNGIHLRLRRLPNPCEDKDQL
Text: (§1) To probe the role of CYP4A11 and CYP1A2 in MONACRA metabolism by HLM, we employed inhibitory analysis with the use of epalrestat as a specific inhibitor of CYP4A11 [22] and fluvoxamine as a CYP1A2 inhibitor [37]. We explored the effect of the inhibitors on the activity of recombinant CYP1A2 and CYP4A11, as well as the activity of six different preparations of HLM (preparation X347 was not available at the time of the study).
(§2) Figure 12: Effect of epalrestat (A) and fluvoxamine (B) on 3-(6-methoxynaphthalen-2-yl)acrylic acid (MONACRA) demethylation by recombinant CYP1A2 (black) and CYP4A11 (red) and three pooled human liver microsome (HLM) preparations: X263 (green), DNJ (blue), and WGP (brown). Solid lines represent the approximation of the datasets by eqn 1 (in the instances of pure inhibition) or a combination of two hyperbolic equations (in the cases of activation or combined inhibition and activation). All experiments were carried out at 150 µM MONACRA concentration. The datasets shown in the graphs represent the averages of the results of four (fluvoxamine) or two (epalrestat) individual experiments.
This study used preparations of pooled HLMs from 50, 150, or 200 donors (mixed gender). The preparations CDN, DNJ, and WGP were INVITROCYP 150-Donor Human Liver Microsomes obtained from BioIVT Corporation (Westbury, NY). Lot EGW is INVITROCYP M-Class 50-Donor HLM procured from the same company. Lots 1,910,096 and 1,210,347 were XTreme 200 Mixed Gender HLM (200 donors) purchased from XenoTech LLC (Kansas City, KS), currently a part of BioIVT. Lot 2,110,263 corresponds to mixed gender HLM from 50 donors from the same company. These lots are referred to herein as X096, X347, and X263, respectively. The supplier of the HLM preparations used in our studies, BioIVT Corporation, has declared to adhere to the regulations of the Department of Health and Human Services for the protection of human subjects (45 CFR §46.116 and §46.117) and Good Clinical Practice, (ICH E6) in obtaining the samples of human tissues used for producing the preparations of human subcellular fractions available from these companies.
(§3) Inhibition of MONACRA metabolism by epalrestat and fluvoxamine was studied using the high-throughput assay described above. The substrate concentration was kept constant at 150 µM. Each column of the well plate comprised eight wells with different concentrations of inhibitor complemented with two wells with no inhibitor added (100% activity samples) and two wells with no inhibitor and no NADPH added (‘blank’ samples). […] The fractional inhibition at each inhibitor concentration was determined from the ratio of the reaction rate in the presence of an inhibitor to the rate observed at no inhibitor added. The resulting dependence of the fractional inhibition on the inhibitor concentration was fitted to a four-parameter logistic equation (Hill equation):
(§4) (1) FI=v0−vi/v0=Amax[I]^N/IC50+[I]^N
In this equation, F I and vi are the fractional inhibition and the reaction velocity observed at inhibitor concentration [I], v0 is the reaction rate at no inhibitor added, and A max is the maximal amplitude of inhibition. IC 50 is the concentration of inhibitor at which the inhibition reaches 50% of its maximal amplitude (A max), and N is the Hill coefficient.

[2] = target: T2, CYP4A11 (Homo sapiens, UniProt Q02928); experiment: Inhibition of MONACRA demethylation by recombinant CYP4A11; format: biochemical; design: purchased Gentest (Huntsville, AL), now a part of Discovery Life Sciences lot 2402280; host or cells: insect cells, recombinant baculovirus; settings: recombinant CYP4A11 Supersomes; 150 µM MONACRA
T2 sequence (Q02928 5-519): T1 sequence (Q02928 5-519)
Text: as §1, §2
as §3, with “The” for “The fractional inhibition at each inhibitor concentration was determined from the ratio of the reaction rate in the presence of an inhibitor to the rate observed at no inhibitor added. The”
as §4
IC 50 is the concentration of inhibitor at which the inhibition reaches 50% of its maximal amplitude (A max), and N is the Hill coefficient.

[3] = substrate: COc1ccc2cc(C=CC(=O)O)ccc2c1; experiment: MONACRA demethylation by recombinant CYP4A11 in Supersomes, high-throughput fluorimetric assay; format: biochemical, human; settings: other: CYP4A11 Supersomes, Michaelis–Menten fit, 20 min at 30°C, ± = confidence interval P=0.05
Protocol: Based on these observations, we developed a high-throughput automated assay applicable for studying SSPs of MONACRA metabolism by microsomal P450 enzymes. In this procedure, the incubation mixtures containing an NADPH-generating system and various substrate concentrations are placed in a multiwell plate and preincubated at 30°C in a thermostated shaker. The reaction is started by adding microsomal suspension to the final concentration of 0.3–1 mg/ml of microsomal protein or 0.02–0.1 µM of recombinant P450 enzymes in Supersomes. Following the incubation for 20 min at 30°C, the reaction is quenched by adding trichloroacetic acid (final concentration […]). After supplementing the wells with Na-glycine buffer (pH 10.4, final concentration 2.1 M), the plates are subjected to scanning the fluorescence spectra with excitation at 375 nm. This assay, which is described in detail in Materials and Methods, allows reliable detection of the concentrations of HONACRA as low as 0.1 µM.
We used the high-throughput activity assay described above to probe MONACRA metabolism by 16 human microsomal P450 enzymes, namely CYP1A2, CYP2A6, CYP2B6, CYP2C8, CYP2C9, CYP2C19, CYP2D6, CYP2E1, CYP2J2, CYP3A4, CYP3A5, CYP4A11, CYP4F2, CYP4F3A, CYP4F3B, and CYP4F12. […]

[4] = all studied HLM samples (six preparations)

COCCCC/C(=N\OCCN)c1ccc(C(F)(F)F)cc1 [fluvoxamine]
amplitude of inhibition ([1]; HLM preparation DNJ): 69% | IC50 ([1]; HLM preparation DNJ, read-out: IC 50): 14 µM | effect on MONACRA metabolism in HLM ([1]; HLM preparations CDN, WGP and X096): combination of an inhibitory effect at lower concentrations with an activation that manifests itself as the concentration increases | effect on MONACRA metabolism in HLM ([1]; HLM preparations EGW and X263): activation similar to that observed in CYP4A11 Supersomes | effect on MONACRA demethylation by CYP4A11 [2]: pronounced activation

CC(/C=C1\SC(=S)N(CC(=O)O)C1=O)=C\c1ccccc1 [epalrestat]
Inhibition (amplitude) ([1]; HLM sample CDN): 99.7±0.6% | IC50 ([1]; HLM sample CDN, unit not given (µM)): 1.48 ± 0.21 µM | Inhibition (amplitude) ([1]; HLM sample DNJ): 93.0±2.3% | IC50 ([1]; HLM sample DNJ, unit not given (µM)): 2.02 ± 1.7 µM | Inhibition (amplitude) ([1]; HLM sample EGW): 99.8±0.4% | IC50 ([1]; HLM sample EGW, unit not given (µM)): 2.15 ± 0.52 µM | Inhibition (amplitude) ([1]; HLM sample WGP): 97.1±5.7% | IC50 ([1]; HLM sample WGP, unit not given (µM)): 2.14 ± 0.94 µM | Inhibition (amplitude) ([1]; HLM sample X096): 93.9±0.7% | IC50 ([1]; HLM sample X096, unit not given (µM)): 5.36 ± 0.13 µM | Inhibition (amplitude) ([1]; HLM sample X263): 100.0% | IC50 ([1]; HLM sample X263, unit not given (µM)): 5.09 ± 1.04 µM | IC50 [1, 4]: 3 ± 1.4 µM | amplitude of inhibition [1, 4]: 97.2±2.5 | IC50 [2]: 1300 nM | effect on MONACRA demethylation by CYP4A11 [2]: complete inhibition

B1: CYP4A11 (Homo sapiens) (protein)
chain: T1 sequence (Q02928 5-519)
notes: purchased Gentest (Huntsville, AL), now a part of Discovery Life Sciences lot 2402280; host or cells: insect cells, recombinant baculovirus
Km [3]: 189 ± 37 µM | kcat [3]: 67 ± 18 min⁻¹
